Experimental data as given in patent US11571418B2, “Platinum compounds that inhibit constitutive STAT3 signaling and induce cell cycle arrest and apoptosis of malignant cells” (H. LEE MOFFITT CANCER CENTER AND RESEARCH INSTITUTE, INC., priority 2011, dated 2023).

Assays:
NFκB-Luc = assay: NFκB promoter-driven luciferase reporter assay; type: cell-based; settings: transient transfection in mouse fibroblasts
Protocol: FIGS. 3A-3D. Inhibition of Stat3-mediated gene expression by PLATINUM-401. (FIG. 3A) and (FIG. 3B) v-Src-transformed mouse fibroblasts that stably express Stat3-dependent (NIH3T3/v-Src/pLucTKS3) and Stat3-independent (NIH3T3/v-Src/pRLSRE) luciferase reporters or β-galactosidase (β-gal), as well as normal mouse fibroblast (NIH3T3) transiently transfected with pLucTKS3, pGL2-VEGF-Luc, NFkB-Luc or pLucSRE together with or without v-Src were treated with or without PLATINUM-401 for 48 h. Cytosolic extracts were then prepared from cells for luciferase and […] activities measurements. […]
Cell proliferation and TUNEL assays—Proliferating cells were first treated with or without PLATINUM-401 for up to 48 h. A portion of cells were harvested for BrdU incorporation following the manufacturer's (BD Biosciences Pharmingen, San Diego, Calif.) instructions and analyzed by flow cytometry. Harvested cells were also analyzed for apoptosis via detection of TdT-mediated dUTP nick-end labeling (TUNEL) assay using Apoptosis Detection Systems Fluorescein according to the manufacturer's (Roche, Indianapolis, Ind.) instructions. […]
To further investigate the activities of PLATINUM-401, the inventors treated malignant cells and measured effects on Stat3 signaling. […]

inactive Stat3 monomer = target: T1, inactive Stat3 monomer (Homo sapiens, UniProt P40763); assay: Inactive STAT monomer added to activated Stat3 before EMSA (titration of compound); type: binding; settings: monomer added to activated Stat3, pre-incubated with compound 30 min
T1 construct: made in house; host or cells: Sf-9 insect cells infected with recombinant baculovirus
Description: The interaction of PLATINUM-401 with Stat3 protein is independent of the activation status of the protein.

inactive Stat5 monomer = assay: as above; type: binding
NIH3T3/v-Src fibroblasts = assay: Soft-agar colony formation assay; type: cell-based, mouse; settings: treated every 2-3 days until large colonies evident
Protocol: (§1) FIG. 4. Abrogation of Stat3-dependent viral Src transformation. Viral Src-transformed fibroblasts (NIH3T3/v-Src) and their Ras-transformed counterparts (NIH3T3/v-Ras) were seeded in soft agar and growing cells were treated every 2-3 days with or without the indicated concentrations of PLATINUM-401 until large colonies were evident. Number of colonies of cells in soft agar were counted and expressed as % of control (non-treated) cells. Values are the mean and S.D. of the three independent assays.
(§2) Soft-agar colony formation assays—Colony formation assays were carried out in six-well dishes as previously described (Turkson et al., 1999). In brief, each well contained 1.5 ml of 1% agarose in DMEM as the bottom layer, and 1.5 ml of 0.5% agarose in DMEM containing 4000 or 6000 NIH3T3/v-Src or NIH3T3/v-Ras fibroblasts, respectively, as the top layer. Treatment with PLATINUM-401 was initiated 1 day after seeding cells by adding 75-100 μl of medium with or without compound, and repeated every three days, until large colonies were evident. Colonies were quantified by staining with 20 μl of 1 mg/ml iodonitrotetrazolium violet, incubating at 37° C. overnight and counting the next day.
(§3) PLATINUM-401 was next evaluated for effects on Stat3-mediated v-Src transformation (Turkson et al., 1998; Bromberg et al., 1998; Turkson et al., 1999).

NIH3T3/v-Ras fibroblasts = assay: Soft-agar colony formation assay; type: cell-based, mouse; settings: treated every 2-3 days until large colonies evident
Protocol: as §1, §2, §3

T1 sequence (P40763 whole entry): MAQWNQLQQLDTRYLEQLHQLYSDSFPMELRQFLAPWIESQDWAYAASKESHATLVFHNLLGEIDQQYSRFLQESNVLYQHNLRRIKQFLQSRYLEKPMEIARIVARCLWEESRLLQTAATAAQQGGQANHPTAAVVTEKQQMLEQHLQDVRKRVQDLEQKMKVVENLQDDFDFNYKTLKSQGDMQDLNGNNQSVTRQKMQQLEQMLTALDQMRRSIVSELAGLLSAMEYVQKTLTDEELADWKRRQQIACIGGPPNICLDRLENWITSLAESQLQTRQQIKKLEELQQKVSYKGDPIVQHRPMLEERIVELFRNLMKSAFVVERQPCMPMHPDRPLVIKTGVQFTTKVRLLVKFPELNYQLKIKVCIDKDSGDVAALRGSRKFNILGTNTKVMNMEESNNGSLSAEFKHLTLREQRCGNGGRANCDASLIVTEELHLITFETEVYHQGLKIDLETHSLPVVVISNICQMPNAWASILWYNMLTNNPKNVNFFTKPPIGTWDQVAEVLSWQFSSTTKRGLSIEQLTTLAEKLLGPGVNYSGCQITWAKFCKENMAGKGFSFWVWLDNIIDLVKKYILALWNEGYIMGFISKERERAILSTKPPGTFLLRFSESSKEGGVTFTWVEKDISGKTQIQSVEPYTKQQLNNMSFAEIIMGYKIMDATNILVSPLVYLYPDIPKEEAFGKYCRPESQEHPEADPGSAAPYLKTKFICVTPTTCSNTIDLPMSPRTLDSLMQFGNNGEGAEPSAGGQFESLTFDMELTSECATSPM

CC(O)CN1CCN(CC(C)O)CC1 (centres unmarked) [PLATINUM-401]
induction of NFκB promoter-driven luciferase reporter activity (NFκB-Luc): no inhibitory effects
interaction with inactive Stat3 monomer (inactive Stat3 monomer): interacts
influence of inactive Stat5 monomer on compound's effect on Stat3 DNA-binding activity (inactive Stat5 monomer): failed to significantly influence
growth in soft agar (NIH3T3/v-Src fibroblasts): strongly suppresses growth
growth in soft agar (NIH3T3/v-Ras fibroblasts): only partially inhibits growth
